Laboratory results taken from patent US20100317698A1, “Polysubstituted Pyridinylaminoalkylene- and Pyridinyloxyalkylene-Cyclopropanamine Compounds, a Process for Their Preparation and Pharmaceutical Compositions Containing Them” (LES LABORATOIRES SERVIER, priority 2006, published 2010).
Structures can show the parent of a compound that is named as a salt.

How the values were obtained:
[1] = target: T1, type α4β2 central nicotinic receptors (Rattus norvegicus, UniProt P09483+P12390); experiment: Displacement of binding of [3H]-cytisine to type α4β2 nicotinic receptors of rat brain; conditions: rat brain membranes, read-out: Affinity (Ki, nM) for type α4β2 receptors
T1 construct: from tissue; host or cells: rat brain membranes
Method: This study, carried out according to the technique described in Molec. Pharmacol., 1990, 39; 9-12, is aimed at determining the affinity of compounds of the present invention for type […] central nicotinic receptors.
Membranes (250 μg/ml) of rat brain are incubated (2 hours, 20° C.) in the presence of a series of concentrations (0.01-10 μM) of each compound of the present invention (diluted starting from a 10 mM stock solution in DMSO) and [^3H]-cytisine (S.A.: 1184 GBq/mmol: 2 nM) in phosphate buffer (NaH2PO4 20 mM, pH 7.4); final volume: 250 μl. The non-specific binding is determined by incubating membranes in the presence of 10 μM of (−)nicotine. The affinity of the compounds of the present invention for type α4β2 central nicotinic receptors is characterised by determination of the Ki.

[2] = tested on: cortical release of acetylcholine; experiment: In vivo measurement of the release of acetylcholine by intra-cortical microdialysis in the conscious Wistar rat; conditions: 10 mg/kg IP, median prefrontal cortex
Method: The systemic administration of nicotine and nicotinic agonists causes an increase, in vivo, of acetylcholine in various regions of the brain (Neurochem. Res., 1996, 21, 1181-1186; Eur. J. Pharmacol., 1998, 351, 181-188; Br. J. Pharmacol., 1999, 127, 1486-1494). A microdialysis probe is implanted in the median prefrontal cortex of male Wistar rats. Six or seven days after they have been implanted, the probes are perfused with Ringer's solution (NaCl 147 mM, KCl 2.7 mM, CaCl2 1.2 mM, MgCl2 1 mM, neostigmine 20 nM) at a flow rate of 1 μl/min, the animal being free to move. After 2 hours in the animal quarters, the product under test is administered by the intraperitoneal route. A group of control animals receives the solvent used for the product. The dialysates (30 μl) are then collected every 30 minutes for 4 hours in order to measure the extra-synaptic cortical concentrations of acetylcholine by means of HPLC with amperometric detection. The results are expressed in pg of acetylcholine/dialysate, and inter-group comparisons are carried out by means of variance analysis, using 2 factors (treatment×time), with measurements being repeated over time.

NMRI mouse = experiment: Abdominal contractions induced by phenyl-p-benzoquinone (PBQ) in the NMRI mouse; assay type: in vivo; conditions: 10 mg/kg IP
Method: Intraperitoneal administration of an alcoholic solution of PBQ causes abdominal cramps in the mouse (Proc. Soc. Exp. Biol., 1957, 95, 729-731). The cramps are characterised by repeated contractions of the abdominal musculature, accompanied by extension of the hind limbs. Most analgesics antagonise these abdominal cramps (Brit. J. Pharmacol. Chem., 1968, 32, 295-310). At t=0 min., the animals are weighed and the compound being studied is administered by the IP route. A group of control animals is given the solvent used for the compound. At t=30 min., an alcoholic solution of PBQ (0.2%) is administered by the IP route in a volume of 0.25 ml/mouse. Immediately after administration of the PBQ, the animals are placed in cylinders of plexiglass (L=19.5 cm; I.D.=5 cm). From t=35 min. to t=45 min., the animals' reaction is observed and the experimenter notes the total number of abdominal cramps per animal. The results are expressed as the percentage inhibition of the number of abdominal cramps measured in the control animals at the active dose of the compound studied.

T1 sequence (P09483 31-630): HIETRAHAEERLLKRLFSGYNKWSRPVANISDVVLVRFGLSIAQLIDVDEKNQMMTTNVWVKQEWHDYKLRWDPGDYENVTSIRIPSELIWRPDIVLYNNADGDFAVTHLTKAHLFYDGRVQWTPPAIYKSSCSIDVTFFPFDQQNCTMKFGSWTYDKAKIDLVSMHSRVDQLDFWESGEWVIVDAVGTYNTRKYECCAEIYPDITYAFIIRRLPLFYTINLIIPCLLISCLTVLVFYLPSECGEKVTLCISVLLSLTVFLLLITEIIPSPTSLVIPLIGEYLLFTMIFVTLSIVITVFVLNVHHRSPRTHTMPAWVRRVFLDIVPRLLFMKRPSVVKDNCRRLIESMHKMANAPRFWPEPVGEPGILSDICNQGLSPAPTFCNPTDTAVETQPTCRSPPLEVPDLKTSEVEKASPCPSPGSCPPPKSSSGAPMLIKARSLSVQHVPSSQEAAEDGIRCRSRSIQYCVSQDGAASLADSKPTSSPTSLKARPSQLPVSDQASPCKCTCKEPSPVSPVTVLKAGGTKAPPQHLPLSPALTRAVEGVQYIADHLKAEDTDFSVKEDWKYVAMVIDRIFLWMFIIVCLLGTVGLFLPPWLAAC
T1 sequence (P12390 25-500): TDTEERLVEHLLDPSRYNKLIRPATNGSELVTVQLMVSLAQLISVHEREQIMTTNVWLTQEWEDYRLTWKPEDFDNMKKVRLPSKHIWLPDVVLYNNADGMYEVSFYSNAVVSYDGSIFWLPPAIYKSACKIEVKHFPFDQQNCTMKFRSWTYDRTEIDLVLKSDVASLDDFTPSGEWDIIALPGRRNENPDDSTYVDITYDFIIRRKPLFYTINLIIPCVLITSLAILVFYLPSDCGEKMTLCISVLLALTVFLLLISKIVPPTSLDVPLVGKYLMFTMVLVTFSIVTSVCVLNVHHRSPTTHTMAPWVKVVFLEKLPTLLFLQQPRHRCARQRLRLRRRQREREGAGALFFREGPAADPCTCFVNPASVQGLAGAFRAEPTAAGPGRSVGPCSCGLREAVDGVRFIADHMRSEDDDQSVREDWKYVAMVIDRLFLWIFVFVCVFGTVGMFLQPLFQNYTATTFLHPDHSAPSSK

| Compound | melting point | Ki [1] | increase of the release of acetylcholine [2] | inhibition of the number of abdominal cramps versus control animals (NMRI mouse) |
| --- | --- | --- | --- | --- |
| CNC1(COc2cncc(-c3ccc(C)cc3)c2)CC1.Cl.Cl [Example 2, Methyl[1-({[5-(4-methylphenyl)pyridin-3-yl]oxy}methyl)cyclopropyl]amine dihydrochloride] | 218 to 223 °C | 8.5 nM | – | – |
| CNC1(COc2cnc(Cl)c(-c3ccc(C#N)cc3)c2)CC1.Cl [Example 18, 4-(2-Chloro-5-{[1-(methylamino)cyclopropyl]methoxy}pyridin-3-yl)benzonitrile hydrochloride] | 215 to 220 °C | – | +104% | – |
| NCC1(COc2cnc(Cl)c(-c3ccc(F)cc3)c2)CC1 [Example 26, [1-({[6-Chloro-5-(4-fluorophenyl)pyridin-3-yl]oxy}methyl)cyclopropyl]methylamine hydrochloride] | – | 0.3 nM | – | – |
| CNC1(COc2cnc(C)c(-c3ccncc3)c2)CC1.Cl.Cl.Cl [Example 81, Methyl(1-{[(2-methyl-3,4′-bipyridin-5-yl)oxy]methyl}cyclopropyl)amine trihydrochloride] | 130 to 138 °C | – | – | −90% |
| CNC1(CNc2cnc(Cl)c(-c3ccncc3)c2)CC1.Cl.Cl [Example 106, 2-Chloro-N-{[1-(methylamino)cyclopropyl]methyl}-3,4′-bipyridin-5-amine dihydrochloride] | 100 to 110 °C | – | – | −87% |
| [1-({[5-(3,5-Dichlorophenyl)pyridin-3-yl]oxy}methyl)cyclopropyl]methylamine dihydrochloride [Example 52] | – | 1.4 nM | – | – |
| [1-({[5-(3-Methoxyphenyl)pyridin-3-yl]oxy}methyl)cyclopropyl]methylamine dihydrochloride [Example 1] | – | 7.9 nM | +72% | – |
| [1-({[5-(4-Methoxyphenyl)pyridin-3-yl]oxy}methyl)cyclopropyl]methylamine dihydrochloride [Example 11] | – | 0.8 nM | – | – |
| [1-({[5-(4-Nitrophenyl)pyridin-3-yl]oxy}methyl)cyclopropyl]methylamine dihydrochloride [Example 6] | – | 2.3 nM | – | – |
| [1-({[6-Chloro-5-(3-fluorophenyl)pyridin-3-yl]oxy}methyl)cyclopropyl]methylamine hydrochloride [Example 32] | – | 0.4 nM | – | – |
| [1-({[6-Chloro-5-(4-methylphenyl)pyridin-3-yl]oxy}methyl)cyclopropyl]methylamine dihydrochloride [Example 10] | – | 0.7 nM | – | – |
